In patent US8802597B2, “Herbicidal pyrimidines” (E I du Pont de Nemours and Company, priority 2003, dated 2014):
Read-outs that look alike come from different tables or passages of the source.

Tests used:
Assay in all cases: Test C pre/postemergence
Assay type in all cases: in vivo
[1] = system: crabgrass (Digitaria sanguinalis); conditions: Digitaria sanguinalis, pre-emergence, Preemergence, scale 0 to 100, read-out: Plant response rating, Crabgrass
Procedure, shortened: (§1)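 Test compounds, formulated in a non-phytotoxic solvent mix with surfactant, were applied to freshly planted seeds and, at the same time, to emerged plants at 1- to 4-leaf stage (2 to 18 cm). After 12 to 14 days in the greenhouse, response was scored visually versus controls, 0 = no effect, 100 = complete control.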

[2] = system: yellow nutsedge (Cyperus esculentus); conditions: Cyperus; for pest or weed control at 31 g/ha: 31 g ai/ha; for pest or weed control at 62 g/ha: 62 g ai/ha; for pest or weed control at 125 g/ha: 125 g ai/ha; for pest or weed control at 250 g/ha: 250 g ai/ha
Procedure, shortened: as §1

[3] = system: woolly cupgrass (Eriochloa villosa); conditions: Eriochloa villosa; for pest or weed control at 31 g/ha: 31 g ai/ha; for pest or weed control at 62 g/ha: 62 g ai/ha; for pest or weed control at 125 g/ha: 125 g ai/ha; for pest or weed control at 250 g/ha: 250 g ai/ha
Procedure, shortened: as §1

[4] = system: morningglory (Ipomoea coccinea); conditions: Ipomoea; for pest or weed control at 31 g/ha: 31 g ai/ha; for pest or weed control at 62 g/ha: 62 g ai/ha; for pest or weed control at 125 g/ha: 125 g ai/ha; for pest or weed control at 250 g/ha: 250 g ai/ha
Procedure, shortened: as §1

[5] = system: velvetleaf (Abutilon theophrasti); conditions: Abutilon theophrasti; for pest or weed control at 31 g/ha: 31 g ai/ha; for pest or weed control at 62 g/ha: 62 g ai/ha; for pest or weed control at 125 g/ha: 125 g ai/ha; for pest or weed control at 250 g/ha: 250 g ai/ha
Procedure, shortened: as §1

[6] = system: common ragweed (Ambrosia elatior); conditions: Ambrosia artemisiifolia; for pest or weed control at 31 g/ha: 31 g ai/ha; for pest or weed control at 62 g/ha: 62 g ai/ha; for pest or weed control at 125 g/ha: 125 g ai/ha; for pest or weed control at 250 g/ha: 250 g ai/ha
Procedure, shortened: as §1

[7] = post-emergence, Postemergence, scale 0 to 100 (0 no effect, 100 complete control), read-out: Nutsedge, Yellow plant response rating
[8] = pre-emergence, Preemergence, scale 0 to 100, 0 no effect, 100 complete control, read-out: Plant response rating, Nutsedge, Yellow
[9] = pre-emergence, Preemergence, scale 0 to 100, read-out: Plant response rating, Nutsedge, Yellow
[10] = post-emergence, Postemergence, scale 0 to 100 (0 no effect, 100 complete control), read-out: Cupgrass, Woolly plant response rating
[11] = pre-emergence, Preemergence, scale 0 to 100, 0 no effect, 100 complete control, read-out: Plant response rating, Cupgrass, Woolly
[12] = pre-emergence, Preemergence, scale 0 to 100, read-out: Plant response rating, Cupgrass, Woolly
[13] = post-emergence, Postemergence, scale 0 to 100 (0 no effect, 100 complete control), read-out: Morningglory plant response rating
[14] = pre-emergence, Preemergence, scale 0 to 100, 0 no effect, 100 complete control, read-out: Plant response rating, Morningglory
[15] = pre-emergence, Preemergence, scale 0 to 100, read-out: Plant response rating, Morningglory
[16] = post-emergence, Postemergence, scale 0 to 100 (0 no effect, 100 complete control), read-out: Velvetleaf plant response rating
[17] = pre-emergence, Preemergence, scale 0 to 100, 0 no effect, 100 complete control, read-out: Plant response rating, Velvetleaf
[18] = pre-emergence, Preemergence, scale 0 to 100, read-out: Plant response rating, Velvetleaf
[19] = post-emergence, Postemergence, scale 0 to 100 (0 no effect, 100 complete control), read-out: Ragweed plant response rating
[20] = pre-emergence, Preemergence, scale 0 to 100, 0 no effect, 100 complete control, read-out: Plant response rating, Ragweed
[21] = pre-emergence, Preemergence, scale 0 to 100, read-out: Plant response rating, Ragweed

Compound: COC(=O)c1nc(C2CC2)nc(N)c1Cl [Compound 9, methyl 6-amino-5-chloro-2-cyclopropyl-4-pyrimidinecarboxylate]
- pest or weed control at 125 g/ha ([1]; 125 g ai/ha): 95%
- pest or weed control at 250 g/ha ([1]; 250 g ai/ha): 100%
- pest or weed control at 31 g/ha ([2]; post-emergence, Postemergence, read-out: Plant response rating (scale of 0 to 100), Nutsedge, Yellow): 0%
- pest or weed control at 62 g/ha [2, 7]: 0%
- pest or weed control at 125 g/ha [2, 7]: 0%
- pest or weed control at 250 g/ha ([2]; post-emergence, Postemergence, scale 0 to 100, read-out: Plant response rating, Nutsedge, Yellow): 0%
- pest or weed control at 31 g/ha [2, 8]: 20%
- pest or weed control at 62 g/ha [2, 8]: 100%
- pest or weed control at 125 g/ha [2, 9]: 100%
- pest or weed control at 250 g/ha [2, 9]: 100%
- pest or weed control at 31 g/ha ([3]; post-emergence, Postemergence, read-out: Plant response rating (scale of 0 to 100), Cupgrass, Woolly): 40%
- pest or weed control at 62 g/ha [3, 10]: 60%
- pest or weed control at 125 g/ha [3, 10]: 70%
- pest or weed control at 250 g/ha ([3]; post-emergence, Postemergence, scale 0 to 100, read-out: Plant response rating, Cupgrass, Woolly): 85%
- pest or weed control at 31 g/ha [3, 11]: 0%
- pest or weed control at 62 g/ha [3, 11]: 90%
- pest or weed control at 125 g/ha [3, 12]: 95%
- pest or weed control at 250 g/ha [3, 12]: 100%
- pest or weed control at 31 g/ha ([4]; post-emergence, Postemergence, read-out: Plant response rating (scale of 0 to 100), Morningglory): 90%
- pest or weed control at 62 g/ha [4, 13]: 95%
- pest or weed control at 125 g/ha [4, 13]: 100%
- pest or weed control at 250 g/ha ([4]; post-emergence, Postemergence, scale 0 to 100, read-out: Plant response rating, Morningglory): 100%
- pest or weed control at 31 g/ha [4, 14]: 100%
- pest or weed control at 62 g/ha [4, 14]: 100%
- pest or weed control at 125 g/ha [4, 15]: 100%
- pest or weed control at 250 g/ha [4, 15]: 100%
- pest or weed control at 31 g/ha ([5]; post-emergence, Postemergence, read-out: Plant response rating (scale of 0 to 100), Velvetleaf): 0%
- pest or weed control at 62 g/ha [5, 16]: 75%
- pest or weed control at 125 g/ha [5, 16]: 80%
- pest or weed control at 250 g/ha ([5]; post-emergence, Postemergence, scale 0 to 100, read-out: Plant response rating, Velvetleaf): 95%
- pest or weed control at 31 g/ha [5, 17]: 70%
- pest or weed control at 62 g/ha [5, 17]: 95%
- pest or weed control at 125 g/ha [5, 18]: 100%
- pest or weed control at 250 g/ha [5, 18]: 100%
- pest or weed control at 31 g/ha ([6]; post-emergence, Postemergence, read-out: Plant response rating (scale of 0 to 100), Ragweed): 70%
- pest or weed control at 62 g/ha [6, 19]: 80%
- pest or weed control at 125 g/ha [6, 19]: 95%
- pest or weed control at 250 g/ha ([6]; post-emergence, Postemergence, scale 0 to 100, read-out: Plant response rating, Ragweed): 100%
- pest or weed control at 31 g/ha [6, 20]: 100%
- pest or weed control at 62 g/ha [6, 20]: 100%
- pest or weed control at 125 g/ha [6, 21]: 100%
- pest or weed control at 250 g/ha [6, 21]: 100%
